The IC50 is the concentration that gives 50% inhibition.

Data on 18 compounds can be found in patent US11623919B2, “Heterocyclic P2X7 antagonists” (AXXAM S.P.A., priority 2017, dated 2023).

Common to all, as to test: Screen Quest Fluo-8 No Wash Calcium Assay (Bz-ATP evoked Ca2+ influx, FLIPR)
Format in all cases: cell-based

In test [1] the target is T1, P2X7 receptor (Homo sapiens, UniProt Q99572).
T1 sequence (Q99572 1-595): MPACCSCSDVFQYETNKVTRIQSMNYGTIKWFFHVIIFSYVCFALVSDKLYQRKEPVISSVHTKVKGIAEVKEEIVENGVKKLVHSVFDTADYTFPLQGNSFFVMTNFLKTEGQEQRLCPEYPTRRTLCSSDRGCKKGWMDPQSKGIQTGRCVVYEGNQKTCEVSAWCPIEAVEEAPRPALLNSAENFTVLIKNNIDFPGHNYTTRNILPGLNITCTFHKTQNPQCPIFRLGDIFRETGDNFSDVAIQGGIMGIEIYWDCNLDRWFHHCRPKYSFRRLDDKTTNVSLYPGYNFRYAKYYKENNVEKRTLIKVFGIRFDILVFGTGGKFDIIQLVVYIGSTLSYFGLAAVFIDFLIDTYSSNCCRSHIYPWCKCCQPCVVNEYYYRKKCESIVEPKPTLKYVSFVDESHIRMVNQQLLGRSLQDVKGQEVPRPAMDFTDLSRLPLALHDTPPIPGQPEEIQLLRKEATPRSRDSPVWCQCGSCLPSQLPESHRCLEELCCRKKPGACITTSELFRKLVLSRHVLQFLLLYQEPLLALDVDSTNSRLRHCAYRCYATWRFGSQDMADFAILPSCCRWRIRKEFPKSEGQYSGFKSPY
Further details: hP2X7 (IC50; nM); other: hP2X7; HEK-293 cells stably transfected with P2X7 receptor, Bz-ATP at EC80, Fluo-8 NW; potency. Particulars: hP2X7; HEK-293 cells stably transfected with P2X7 receptor, Bz-ATP at EC80, Fluo-8 NW; potency ranges A-D. The essentials: (§1)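 Compounds were added to Fluo-8-loaded P2X7-transfected HEK-293 cells 5 min before an EC80 Bz-ATP challenge, and Ca2+ influx was then recorded for 3 min. Buffer held 0.3 mM Ca2+ and no Mg2+. Inhibition was normalised to A438079, giving IC50 values.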

For test [2], the target named is T2, P2X7 receptor (Rattus norvegicus, UniProt Q64663).
T2 construct: rP2X7 (IC50; nM); other: rP2X7; HEK-293 cells stably transfected with P2X7 receptor, Bz-ATP at EC80, Fluo-8 NW; potency
T2 sequence (Q64663 1-595): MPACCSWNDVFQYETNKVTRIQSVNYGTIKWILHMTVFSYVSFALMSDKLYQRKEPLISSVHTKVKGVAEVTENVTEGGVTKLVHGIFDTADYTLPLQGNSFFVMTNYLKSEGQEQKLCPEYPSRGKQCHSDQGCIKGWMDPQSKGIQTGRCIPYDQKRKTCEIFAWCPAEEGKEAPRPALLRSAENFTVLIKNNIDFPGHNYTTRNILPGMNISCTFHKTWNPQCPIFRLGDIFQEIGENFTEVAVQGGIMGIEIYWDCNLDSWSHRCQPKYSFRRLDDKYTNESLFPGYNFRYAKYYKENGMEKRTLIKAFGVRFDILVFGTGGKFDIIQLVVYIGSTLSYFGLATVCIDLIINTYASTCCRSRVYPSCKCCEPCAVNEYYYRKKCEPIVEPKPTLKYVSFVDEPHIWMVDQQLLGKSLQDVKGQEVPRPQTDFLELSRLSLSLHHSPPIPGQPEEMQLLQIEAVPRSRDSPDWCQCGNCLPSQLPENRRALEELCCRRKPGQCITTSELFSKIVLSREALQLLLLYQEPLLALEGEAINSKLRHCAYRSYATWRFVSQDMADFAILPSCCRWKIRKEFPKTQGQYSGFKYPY
The following applies: rP2X7; HEK-293 cells stably transfected with P2X7 receptor, Bz-ATP at EC80, Fluo-8 NW; potency ranges A-D. The essentials:
as §1

The target of test [3] is T3, P2X7 receptor (Mus musculus, UniProt Q9Z1M0).
T3 construct: mP2X7 (IC50; nM); other: mP2X7; HEK-293 cells stably transfected with P2X7 receptor, Bz-ATP at EC80, Fluo-8 NW; potency
T3 sequence (Q9Z1M0 1-595): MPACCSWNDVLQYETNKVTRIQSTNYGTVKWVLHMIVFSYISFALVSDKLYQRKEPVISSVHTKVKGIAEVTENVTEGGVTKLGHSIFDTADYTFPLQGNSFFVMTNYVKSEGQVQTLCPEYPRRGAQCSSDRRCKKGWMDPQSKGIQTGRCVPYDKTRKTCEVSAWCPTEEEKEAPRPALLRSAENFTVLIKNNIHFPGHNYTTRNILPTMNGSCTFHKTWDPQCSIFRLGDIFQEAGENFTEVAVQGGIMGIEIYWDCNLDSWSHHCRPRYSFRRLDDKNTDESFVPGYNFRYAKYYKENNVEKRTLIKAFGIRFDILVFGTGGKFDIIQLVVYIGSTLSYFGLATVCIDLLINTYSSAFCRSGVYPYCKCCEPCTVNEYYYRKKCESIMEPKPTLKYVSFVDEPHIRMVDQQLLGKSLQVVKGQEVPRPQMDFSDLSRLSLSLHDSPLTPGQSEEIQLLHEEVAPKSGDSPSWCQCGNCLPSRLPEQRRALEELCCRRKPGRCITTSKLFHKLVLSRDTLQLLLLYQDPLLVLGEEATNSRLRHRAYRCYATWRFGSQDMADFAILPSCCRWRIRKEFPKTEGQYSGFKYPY
The following applies: mP2X7; HEK-293 cells stably transfected with P2X7 receptor, Bz-ATP at EC80, Fluo-8 NW; potency ranges A-D. The essentials: as §1

Turning to `O=c1onc(Cc2ccc(Cl)cc2Cl)n1Cc1c(F)cccc1Cl` [Example 17, 4-[(2-chloro-6-fluorophenyl)methyl]-3-[(2,4-dichlorophenyl)methyl]-4,5-dihydro-1,2,4-oxadiazol-5-one], the IC50 on P2X7 receptor [1], on P2X7 receptor [2] and on P2X7 receptor [3] was 1000 to 10000 nM each time.

With `O=c1onc(Cc2c(F)cccc2Cl)n1Cc1ccccn1` [Example 62, 3-[(2-chloro-6-fluorophenyl)methyl]-4-(pyridin-2-ylmethyl)-4,5-dihydro-1,2,4-oxadiazol-5-one], the IC50 on P2X7 receptor [1], on P2X7 receptor [2] and on P2X7 receptor [3] was > 10000 nM each time.

Take `O=c1onc(C(O)c2ccc(F)cc2F)n1Cc1c(F)cccc1Cl` (stereo not drawn) [Example 137, 4-[(2-chloro-6-fluorophenyl)methyl]-3-[(2,4-dffluorophenyl)(hydroxy)methyl]-4,5-dihydro-1,2,4-oxadiazol-5-one]: the IC50 at P2X7 receptor [1], at P2X7 receptor [2] and at P2X7 receptor [3] was 1000 to 10000 nM each time.

`O=c1onc(Cc2ccccc2)n1Cc1c(F)cccc1Cl` [Example 6, 3-benzyl-4-[(2-chloro-6-fluorophenyl)methyl]-4,5-dihydro-1,2,4-oxadiazol-5-one]: the IC50 at P2X7 receptor [1], at P2X7 receptor [2] and at P2X7 receptor [3] was 1000 to 10000 nM in each case.

For `O=c1onc(Cc2cccc(F)c2)n1CC1CCC(F)(F)CC1` [Example 151, 4-[(4,4-difluorocyclohexyl)methyl]-3-[(3-fluorophenyl)methyl]-4,5-dihydro-1,2,4-oxadiazol-5-one], the concentration for half-maximal inhibition (IC50) at P2X7 receptor [1] was 200 to 1000 nM; at P2X7 receptor [2], 200 to 1000 nM; on P2X7 receptor [3], 1000 to 10000 nM.

`O=c1onc(Cc2ccc(F)cc2)n1Cc1ccc(Cl)cc1Cl` [Example 9, 4-[(2,4-dichlorophenyl)methyl]-3-[(4-fluorophenyl)methyl]-4,5-dihydro-1,2,4-oxadiazol-5-one]: the IC50 at P2X7 receptor [1] was 200 to 1000 nM; on P2X7 receptor [2] it was 1000 to 10000 nM; on P2X7 receptor [3] it was > 10000 nM.

Regarding `O=c1onc(CC2CCC(F)(F)CC2)n1Cc1ccc(C(F)(F)F)o1` [Example 168, 3-[(4,4-difluorocyclohexyl)methyl]-4-{[5-(trifluoromethyl)furan-2-yl]methyl}-4,5-dihydro-1,2,4-oxadiazol-5-one], the IC50 on P2X7 receptor [1] is 1000 to 10000 nM; at P2X7 receptor [2] it was 200 to 1000 nM; at P2X7 receptor [3], 200 to 1000 nM.

Take `O=c1onc(Cc2c(F)cccc2Cl)n1CC1CCC(F)(F)C1` (single isomer, unassigned) [Example 148, 3-(2-chloro-6-fluorobenzyl)-4-[(3,3-difluorocyclopentyl)methyl]-1,2,4-oxadiazol-5(4H)-one]: the half-maximal inhibitory concentration (IC50) was < 200 nM on P2X7 receptor [1], < 200 nM at P2X7 receptor [2] and 200 to 1000 nM on P2X7 receptor [3].

In the case of `O=c1onc(Cc2ccc(Cl)cc2Cl)n1CC1CCC(F)(F)CC1` [Example 159, 3-[(2,4-dichlorophenyl)methyl]-4-[(4,4-difluorocyclohexyl)methyl]-4,5-dihydro-1,2,4-oxadiazol-5-one], the figures for the IC50 at P2X7 receptor [1], at P2X7 receptor [2] and at P2X7 receptor [3] were < 200 nM, < 200 nM and 200 to 1000 nM, respectively.

Take `O=c1onc(Cc2c(F)cccc2Cl)n1Cn1ccc(C(F)(F)F)n1` [Example 35, 3-[(2-chloro-6-fluorophenyl)methyl]-4-{[3-(trifluoromethyl)-1H-pyrazol-1-yl]methyl}-4,5-dihydro-1,2,4-oxadiazol-5-one]: the IC50 on P2X7 receptor [1], at P2X7 receptor [2] and on P2X7 receptor [3] was 1000 to 10000 nM in each case.

On to `Cc1ncsc1Cn1c(Cc2ccc(F)cc2)noc1=O` [Example 8, 3-[(4-fluorophenyl)methyl]-4-[(4-methyl-1,3-thiazol-5-yl)methyl]-4,5-dihydro-1,2,4-oxadiazol-5-one], for which the IC50 at P2X7 receptor [1] was 1000 to 10000 nM; on P2X7 receptor [2] it was > 10000 nM; on P2X7 receptor [3], > 10000 nM.

For `COc1cccc(Cc2noc(=O)n2Cc2ccc(F)cc2)c1` [Example 109, 4-[(4-fluorophenyl)methyl]-3-[(3-methoxyphenyl)methyl]-4,5-dihydro-1,2,4-oxadiazol-5-one], the IC50 at P2X7 receptor [1] is 1000 to 10000 nM; on P2X7 receptor [2], 1000 to 10000 nM; on P2X7 receptor [3], > 10000 nM.

For the compound `O=c1onc(Cc2cccc(F)c2)n1Cc1ccc(F)cc1` [Example 107, 3-[(3-fluorophenyl)methyl]-4-[(4-fluorophenyl)methyl]-4,5-dihydro-1,2,4-oxadiazol-5-one], the IC50 at P2X7 receptor [1], on P2X7 receptor [2] and at P2X7 receptor [3] was 1000 to 10000 nM throughout.

As to `Cc1nc(C(F)(F)F)ccc1Cn1c(Cc2c(F)cccc2Cl)noc1=O` [Example 64, 3-[(2-chloro-6-fluorophenyl)methyl]-4-{[2-methyl-6-(trifluoromethyl)pyridin-3-yl]methyl}-4,5-dihydro-1,2,4-oxadiazol-5-one], the half-maximal inhibitory concentration (IC50) on P2X7 receptor [1] is 1000 to 10000 nM; on P2X7 receptor [2], > 10000 nM; on P2X7 receptor [3] it was > 10000 nM.

Regarding `O=c1onc(Cc2ccccn2)n1CC1CCCCC1` [Example 110, 4-(cyclohexylmethyl)-3-(pyridin-2-ylmethyl)-4,5-dihydro-1,2,4-oxadiazol-5-one], the IC50 on P2X7 receptor [1] was > 10000 nM; at P2X7 receptor [2] it was 1000 to 10000 nM; at P2X7 receptor [3], > 10000 nM.

Regarding `O=c1onc(Cc2c(F)cccc2Cl)n1CCCN1CCCCC1` [Example 180, 3-[(2-chloro-6-fluorophenyl)methyl]-4-[3-(piperidin-1-yl)propyl]-4,5-dihydro-1,2,4-oxadiazol-5-one], the concentration for half-maximal inhibition (IC50) at P2X7 receptor [1], at P2X7 receptor [2] and on P2X7 receptor [3] was > 10000 nM each time.

`O=c1onc(Cc2c(F)cccc2Cl)n1CC1CC2C(C1)C2(F)F` (stereo not drawn) [Example 173, 3-[(2-chloro-6-fluorophenyl)methyl]-4-({6,6-difluorobicyclo[3.1.0]-hexan-3-yl}methyl)-4,5-dihydro-1,2,4-oxadiazol-5-one]: the 50% inhibitory concentration (IC50) was < 200 nM at P2X7 receptor [1], < 200 nM on P2X7 receptor [2] and 200 to 1000 nM on P2X7 receptor [3].

With `Cc1cc(Cn2c(CC3CCC(F)(F)CC3)noc2=O)no1` [Example 169, 3-[(4,4-difluorocyclohexyl)methyl]-4-[(5-methyl-1,2-oxazol-3-yl)methyl]-4,5-dihydro-1,2,4-oxadiazol-5-one], the IC50 at P2X7 receptor [1] was > 10000 nM; on P2X7 receptor [2], 1000 to 10000 nM; on P2X7 receptor [3], > 10000 nM.
